Read-outs that look alike come from different tables or passages of the source.
Assays:
human PI3Kα protein = target: T1, human PI3Kα protein (Homo sapiens, UniProt P42336); experiment: PI3Kα enzyme assay (ADP-Glo); assay type: biochemical; settings: read-out: PI3Kα enzyme inhibitory activity
T1 construct: purchased Carna Biosciences, Inc; host or cells: baculovirus expression system
Procedure: In a PI3Kα enzyme assay, a product (manufactured by Carna Biosciences, Inc.) obtained by biotinylating a human PI3Kα protein produced by using a baculovirus expression system was used. In addition, in the detection of enzyme activity, ADP-GLO KINASE ASSAY (trade name, manufactured by PROMEGA Corporation) was used.
10 μL of a reaction liquid (4.5 nmol/L PI3Kα, 40 mmol/L Tris-HCl, 20 mmol/L MgCl2, 0.1% BSA, pH 7.5) including the human PI3Kα protein and a test compound having a predetermined concentration was allowed to stand at room temperature for 15 minutes. Then, 5 μL of a mixture liquid of L-α-phosphatidylinositol 4,5-diphosphate (PIP2) (manufactured by Sigma-Aldrich Co. LLC.) and ATP (manufactured by Sigma-Aldrich Co. LLC.), which are substrates, was added thereto such that final concentrations thereof became 50 μmol/L and 100 μmol/L, respectively, and an enzyme reaction was performed by allowing to stand at 25° C. for 60 minutes.
After the reaction, the enzyme reaction was stopped by adding 15 μL of an ADP-GLO REAGENT (trade name, manufactured by PROMEGA Corporation) thereto and allowing to stand at room temperature for 60 minutes. Then, 30 μL of a KINASE DETECTION REAGENT (trade name, manufactured by PROMEGA Corporation) was added thereto, followed by allowing to stand at room temperature for 40 minutes, and ADP produced by the enzyme reaction was quantified by emission intensity.
ENVISION (trade name, manufactured by Perkin Elmer Inc.) was used for the measurement of the emission intensity.
(§1) The inhibitory activities of the compounds were evaluated using IC50 (50% inhibitory concentration). The IC50 was calculated using XLFIT (trade name, manufactured by ID Business Solutions).

[1] = target: T2, GST fusion human ERK2 protein (Homo sapiens, UniProt P28482); experiment: ERK2 enzyme assay (2); assay type: biochemical; settings: read-out: ERK2 enzyme inhibitory activity (2)
T2 construct: purchased Carna Biosciences, Inc; host or cells: E. coli expression system
T2 sequence (P28482 whole entry, the tested form may be a part): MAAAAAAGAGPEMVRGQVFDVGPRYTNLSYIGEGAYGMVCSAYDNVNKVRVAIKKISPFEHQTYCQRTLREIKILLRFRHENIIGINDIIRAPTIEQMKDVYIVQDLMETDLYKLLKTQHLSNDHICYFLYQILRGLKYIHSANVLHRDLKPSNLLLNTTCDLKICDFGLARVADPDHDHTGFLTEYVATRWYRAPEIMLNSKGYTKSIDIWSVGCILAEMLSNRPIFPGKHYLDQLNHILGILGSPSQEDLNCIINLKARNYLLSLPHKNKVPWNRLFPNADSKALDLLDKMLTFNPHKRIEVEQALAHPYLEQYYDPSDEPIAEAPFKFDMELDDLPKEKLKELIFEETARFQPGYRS
Procedure: In an ERK2 enzyme assay, GLUTATHIONE S-TRANSFERASE (GST) FUSION HUMAN ERK2 PROTEIN (manufactured by Carna Biosciences, Inc.), which was produced by using an E. coli expression system, was used.
12 μL of a reaction liquid (1.25 nmol/L ERK2, 100 mmol/L Hepes, 10 mmol/L MgCl2, 1.5 mmol/L DTT, 0.003% Brij35, pH 7.5) including ERK2 protein and a test compound having a predetermined concentration was allowed to stand at room temperature for 15 minutes. Then, 3 μL of a mixture liquid of FL-PEPTIDE8 (5-FAM-IPTSPITTTYFFFKKK-COOH) (manufactured by Caliper Life Sciences), which is substrate peptide, and ATP (manufactured by Sigma-Aldrich Co. LLC.) was added thereto such that the final concentrations thereof became 4.25 μmol/L and 1 mmol/L, respectively, and an enzyme reaction was performed by allowing to stand at 25° C. for 120 minutes.
After the reaction, the enzyme reaction was stopped by adding 30 μL of a reaction stopper liquid (100 mmol/L HEPES, 11.2 mmol/L EDTA, 5.6% Brij35, pH 7.5) including a 0.5% COATING REAGENT 8 (trade name, manufactured by Perkin Elmer Inc.) thereto. Then, phosphorylated peptide and non-phosphorylated peptide were separated using LABCHIP EZ READER (trade name, manufactured by Caliper Life Sciences), and the porportion of the phosphorylated peptide was quantified.
as §1

T1 sequence (P42336 whole entry): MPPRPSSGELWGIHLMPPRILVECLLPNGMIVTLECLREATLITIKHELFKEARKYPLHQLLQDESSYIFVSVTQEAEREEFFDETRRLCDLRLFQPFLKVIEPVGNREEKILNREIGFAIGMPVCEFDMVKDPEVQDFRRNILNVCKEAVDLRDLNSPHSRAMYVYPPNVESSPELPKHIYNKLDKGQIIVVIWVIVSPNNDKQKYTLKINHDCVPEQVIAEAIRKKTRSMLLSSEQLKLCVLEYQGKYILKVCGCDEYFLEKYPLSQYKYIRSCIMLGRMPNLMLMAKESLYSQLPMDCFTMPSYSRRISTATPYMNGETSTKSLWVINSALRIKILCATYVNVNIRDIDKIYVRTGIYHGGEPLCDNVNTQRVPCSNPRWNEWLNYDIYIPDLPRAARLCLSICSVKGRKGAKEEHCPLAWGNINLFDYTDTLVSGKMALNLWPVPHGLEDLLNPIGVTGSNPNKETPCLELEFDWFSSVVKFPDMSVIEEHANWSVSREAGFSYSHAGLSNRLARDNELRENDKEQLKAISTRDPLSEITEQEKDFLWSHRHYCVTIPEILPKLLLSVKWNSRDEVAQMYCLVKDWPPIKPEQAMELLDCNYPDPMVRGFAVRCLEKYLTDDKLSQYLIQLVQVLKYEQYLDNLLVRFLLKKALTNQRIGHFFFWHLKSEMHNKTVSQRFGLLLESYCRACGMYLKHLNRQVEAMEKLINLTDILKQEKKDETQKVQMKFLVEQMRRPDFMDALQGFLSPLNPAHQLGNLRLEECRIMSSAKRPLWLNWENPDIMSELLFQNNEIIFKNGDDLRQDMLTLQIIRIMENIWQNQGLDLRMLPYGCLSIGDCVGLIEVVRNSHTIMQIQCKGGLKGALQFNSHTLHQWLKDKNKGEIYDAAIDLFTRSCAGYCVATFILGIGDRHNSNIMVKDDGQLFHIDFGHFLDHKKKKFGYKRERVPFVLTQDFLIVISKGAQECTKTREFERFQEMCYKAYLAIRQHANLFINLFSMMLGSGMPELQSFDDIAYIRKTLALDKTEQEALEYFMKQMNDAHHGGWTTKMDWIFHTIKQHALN
T1 sequence (P27986 whole entry partner): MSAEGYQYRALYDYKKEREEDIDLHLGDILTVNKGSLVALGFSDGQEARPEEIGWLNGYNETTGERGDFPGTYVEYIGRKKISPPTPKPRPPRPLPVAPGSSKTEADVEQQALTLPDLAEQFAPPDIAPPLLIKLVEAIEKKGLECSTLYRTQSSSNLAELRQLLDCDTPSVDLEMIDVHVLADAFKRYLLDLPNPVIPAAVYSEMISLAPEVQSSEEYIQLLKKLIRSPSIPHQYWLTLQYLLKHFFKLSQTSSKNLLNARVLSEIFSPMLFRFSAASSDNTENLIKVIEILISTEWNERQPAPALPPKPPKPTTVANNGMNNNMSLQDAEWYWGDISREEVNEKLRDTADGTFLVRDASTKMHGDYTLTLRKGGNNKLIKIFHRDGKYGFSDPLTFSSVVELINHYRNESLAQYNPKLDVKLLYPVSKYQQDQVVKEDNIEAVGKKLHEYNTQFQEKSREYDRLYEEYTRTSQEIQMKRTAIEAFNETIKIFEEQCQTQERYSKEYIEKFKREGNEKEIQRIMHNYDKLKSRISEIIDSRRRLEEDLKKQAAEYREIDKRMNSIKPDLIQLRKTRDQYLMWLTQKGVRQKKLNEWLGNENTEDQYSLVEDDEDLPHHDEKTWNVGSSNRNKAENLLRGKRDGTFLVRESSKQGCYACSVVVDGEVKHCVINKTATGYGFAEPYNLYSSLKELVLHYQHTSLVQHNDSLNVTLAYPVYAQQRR

Row | SMILES | IC50 (human PI3Kα protein) [nM] | IC50 ([1]; ERK2 enzyme assay (2)) [nM] | IC50 [1] [nM]
1 | CC(C)c1cnnc(Nc2ccc3ncc(-c4cn(C)nc4C4CNC4)cc3n2)c1 [Example 0780, 7-(3-(azetidin-3-yl)-1-methyl-1H-pyrazol-4-yl)-N-(5-isopropylpyridazin-3-yl)-1,5-naphthyridine-2-amine] | < 1000 | < 1000 | –
2 | Cc1nn(C)cc1-c1cnc2ccc(Nc3cc(C4CCOCC4)cnn3)nc2c1 [Example 0760, 7-(1,3-Dimethyl-1H-pyrazol-4-yl)-N-(5-(tetrahydro-2H-pyran-4-yl)pyridazin-3-yl)-1,5-naphthyridine-2-amine] | < 1000 | < 1000 | –
3 | CN(C)S(=O)(=O)Cc1cnnc(Nc2ccc3ncc(-c4cnn(C)c4)cc3n2)c1 [Example 0924] | < 1000 | – | < 1000
4 | COCc1cnnc(Nc2ccc3ncc(-c4cnn(C)c4)cc3n2)c1 [Example 0922] | 1000 to 10000 | – | < 1000
5 | COC1CN(c2cnc3ccc(Nc4cc(C(C)C)cnn4)nc3c2)C1 [Example 0853] | < 1000 | < 1000 | –
6 | CC(C)c1cnnc(Nc2ccc3ncc(-c4cn(C)nc4COC4CN(C(=O)OC(C)(C)C)C4)cc3n2)c1 [Example 0821, tert-Butyl 3-((4-(6-((5-isopropylpyridazin-3-yl)amino)-1,5-naphthyridin-3-yl)-1-methyl-1H-pyrazol-3-yl)methoxy)azetidine-1-carboxylate] | < 1000 | < 1000 | –
7 | CC(C)c1cnnc(Nc2ccc3ncc(N4CCC(C#N)C4)cc3n2)c1 (centres unmarked) [Example 0897] | < 1000 | < 1000 | –
8 | CC(C)c1cnnc(Nc2ccc3ncc(-c4cn(C)nc4N4CC5(CCO5)C4)cc3n2)c1 [Example 0941] | < 1000 | – | < 1000
9 | CC(C)c1cnnc(Nc2ccc3ncc(N4CC(F)(F)C4)cc3n2)c1 [Example 0854] | < 1000 | < 1000 | –
10 | Cc1nn(C)cc1-c1cnc2ccc(Nc3cc(C4(C)CC4)cnn3)nc2c1 [Example 0885, 7-(1,3-Dimethyl-1H-pyrazol-4-yl)-N-(5-(1-methylcyclopropyl)pyridazin-3-yl)-1,5-naphthyridine-2-amine] | < 1000 | < 1000 | –
11 | Cc1cnnc(Nc2ccc3ncc(-c4cn(C)nc4-c4ccc(C#N)nc4)cc3n2)c1 [Example 0457] | < 1000 | 10000 to 50000 | –
12 | Cc1nn(C)cc1-c1cnc2ccc(Nc3cn(C(C)C)cn3)nc2c1 [Example 0950, 7-(1,3-dimethyl-1H-pyrazol-4-yl)-N-(1-isopropyl-1H-imidazol-4-yl)-1,5-naphthyridine-2-amine] | < 1000 | – | 1000 to 10000
13 | CC(C)c1cnnc(Nc2ccc3ncc(-c4cn(C)nc4C(F)(F)F)cc3n2)c1 [Example 0634] | < 1000 | < 1000 | –
14 | CC(C)c1cnnc(Nc2ccc3ncc(-c4cn(C)nc4-c4ccccn4)cc3n2)c1 [Example 0838, N-(5-isopropylpyridazin-3-yl)-7-(1-methyl-3-(pyridin-2-yl)-1H-pyrazol-4-yl)-1,5-naphthyridine-2-amine] | < 1000 | < 1000 | –
15 | CC(C)c1cnnc(Nc2ccc3ncc(-c4cn(C)nc4COc4ccccc4)cc3n2)c1 [Example 0803] | < 1000 | < 1000 | –
16 | CC(=O)N1CCC(n2cc(-c3cnc4ccc(Nc5cc(C(C)C)cnn5)nc4c3)cn2)CC1 [Example 0478, 1-(4-(4-(6-((5-Isopropylpyridazin-3-yl)amino)-1,5-naphthyridin-3-yl)-1H-pyrazol-1-yl)piperidin-1-yl)ethanone] | < 1000 | < 1000 | –
17 | CC(C)c1cnnc(Nc2ccc3ncc(-c4cnn(CCCN5CCC(F)(F)C5)c4)cc3n2)c1 [Example 0427] | < 1000 | < 1000 | –

Row | SMILES | IC50 (human PI3Kα protein) [nM] | IC50 ([1]; ERK2 enzyme assay (2)) [nM] | IC50 [1] [nM]
18 | Cc1n[nH]c(C)c1-c1cnc2ccc(Nc3cc(C(C)C)cnn3)nc2c1 [Example 0621] | 1000 to 10000 | < 1000 | –
19 | CC(C)c1cnnc(Nc2ccc3ncc(-c4cn(C)nc4NC4CN(C)C4)cc3n2)c1 [Example 0827, N-(5-isopropylpyridazin-3-yl)-7-(1-methyl-3-((1-methylazetidin-3-yl)amino)-1H-pyrazol-4-yl)-1,5-naphthyridine-2-amine] | < 1000 | < 1000 | –
20 | Cc1c(-c2cnn(C)c2)cnc2ccc(Nc3cc(C(C)C)cnn3)nc12 [Example 0850, N-(5-isopropylpyridazin-3-yl)-8-methyl-7-(1-methyl-1H-pyrazol-4-yl)-1,5-naphthyridine-2-amine] | < 1000 | < 1000 | –
21 | CC(C)c1cnnc(Nc2ccc3ncc(-c4cn(C)nc4COC4CN(C)C4)cc3n2)c1 [Example 0823, N-(5-isopropylpyridazin-3-yl)-7-(1-methyl-3-(((1-methylazetidin-3-yl)oxy)methyl)-1H-pyrazol-4-yl)-1,5-naphthyridine-2-amine] | < 1000 | < 1000 | –
22 | CC(C)c1cnnc(Nc2ccc3ncc(N(C)C)cc3n2)c1 [Example 0627, N^2-(5-isopropylpyridazin-3-yl)-N^7,N^7-dimethyl-1,5-naphthyridine-2,7-diamine] | 1000 to 10000 | < 1000 | –
23 | CC(C)c1cnnc(Nc2ccc3ncc(-c4cnc(N5CCNCC5)s4)cc3n2)c1 [Example 0502] | < 1000 | < 1000 | –
24 | CC(C)c1cnnc(Nc2ccc3ncc(N4CCC(N5CCCC5)C4)cc3n2)c1 (centres unmarked) [Example 0899] | 1000 to 10000 | 1000 to 10000 | –
25 | CC(C)c1cnnc(Nc2ccc3ncc(-c4cn(C)nc4NCc4ccccn4)cc3n2)c1 [Example 0834] | < 1000 | < 1000 | –
26 | CC(C)c1cnnc(Nc2ccc3ncc(-c4cnn(C[C@H]5CCC(=O)N5)c4)cc3n2)c1 [Example 0566] | < 1000 | < 1000 | –
27 | CC(C)c1cnnc(Nc2ccc3ncc(-c4cnn(CCCN5CCOCC5C)c4)cc3n2)c1 (centres unmarked) [Example 0607, N-(5-isopropylpyridazin-3-yl)-7-(1-(3-(3-methylmorpholino)propyl)-1H-pyrazol-4-yl)-1,5-naphthyridine-2-amine] | < 1000 | < 1000 | –
28 | CC(C)c1cnnc(Nc2ccc3ncc(-c4ccnn4C)cc3n2)c1 [Example 0758] | 1000 to 10000 | < 1000 | –
29 | CC(C)c1cnnc(Nc2ccc3ncc(-c4cnn(C)c4)c(N4CCOCC4)c3n2)c1 [Example 0955, N-(5-isopropylpyridazin-3-yl)-7-(1-methyl-1H-pyrazol-4-yl)-8-morpholino-1,5-naphthyridine-2-amine] | < 1000 | – | < 1000
30 | Cc1nc(C)c(-c2cnc3ccc(Nc4cc(C(C)C)cnn4)nc3c2)s1 [Example 0574, 7-(2,4-dimethylthiazol-5-yl)-N-(5-isopropylpyridazin-3-yl)-1,5-naphthyridine-2-amine] | 1000 to 10000 | < 1000 | –
31 | COC1CN(CCCn2cc(-c3cnc4ccc(Nc5cc(C(C)C)cnn5)nc4c3)c(C)n2)C1 [Example 0796, N-(5-isopropylpyridazin-3-yl)-7-(1-(3-(3-methoxyazetidin-1-yl)propyl)-3-methyl-1H-pyrazol-4-yl)-1,5-naphthyridine-2-amine] | < 1000 | < 1000 | –
32 | CCOC(C)c1cnnc(Nc2ccc3ncc(-c4cn(C)nc4C)cc3n2)c1 (centres unmarked) [Example 0921] | < 1000 | – | < 1000
33 | CC(C)c1cnnc(Nc2ccc3ncc(-c4cn(C)nc4/C=C/c4cccnc4)cc3n2)c1 [Example 0807] | < 1000 | < 1000 | –
34 | CC(C)c1cnnc(Nc2ccc3ncc(-c4cnn(CC(F)CN5CCCC5)c4)cc3n2)c1 (centres unmarked) [Example 0727] | < 1000 | < 1000 | –

— patent US9783536B2, “Nitrogen-containing heterocyclic compound or salt thereof” (FUJIFILM Corporation, priority 2013, dated 2017)
